The values below are quoted from earlier work in patent US9623004B2, “Administration of a therapeutic amount of genistein to mitigate erectile dysfunction resulting from radiation therapy for prostate cancer only throughout a defined administration period commencing shortly before and concluding after radiation therapy” (Humanetics Corporation, priority 2013, dated 2017).

Test in series [1]: not given
This is another data set of the same source.

Consider `O=c1c(-c2ccc(O)cc2)coc2cc(O)cc(O)c12` [Genistein, 5,7-dihydroxy-3-(4-hydroxyphenyl)-chromen-4-one], for which the solubility in water result is reported as “virtually insoluble in water”. The “beneficial effects in other clinical trials” value in series [1] is given as “no beneficial effects”.
